# Data taken from patent US10709725B2, “Gemcitabine ProTide hypoxia-activated prodrug and application thereof” (JIANGSU QIANZHIKANG BIOLOGICAL MEDICINE SCIENCE AND …, priority 2016, dated 2020).
# Where two headings read alike, the source gives them in different places.
# What was measured:
# Assay type in all cases: cell-based
# [1] = tested on: Human pancreatic adenocarcinoma cell BxPC-3 cell; assay: In-vitro inhibition of tumor cell proliferation (3H-TdR, 72 h), normal oxygen and hypoxic; parameters: Median inhibition concentration IC50 normal oxygen (air) / Median inhibition concentration IC50 hypoxic (nitrogen): unit not given here; conditions: for IC50: Homo sapiens
# [2] = tested on: Human liver cancer HepG2 cell; assay: as above; conditions: HepG2, 72 h
# Description: (§1) Take tumor cells in the logarithmic growth phase, add 0.25% pancreatin for digestion for 3 min, use RPMI-1640 containing 10% calf serum for suspension culture of the cells, count the number, adjust cell concentration to 1×10^5 cells/mL, inoculate to a Top-count dedicated 96-well cell culture plate at 100 μL/well, and incubate at 37° C. and 5% CO2 for 24 h; divide the cells into experimental groups and control groups, and add a target compound solution (0.001 μg/mL, 0.01 μg/mL, 0.1 μg/mL, 1 μg/mL, 10 μg/mL) to the experimental groups, wherein each concentration corresponded to four wells, and the volume of each well was made up to 200 μL; after adding samples, continue to culture for 72 h for each group (for hypoxic groups, continue to culture for 72 h at 5% CO2, 95% N2), add ^3H-TdR 3×10^5Bq to each group before culture ended, and measure the CPM (count per minute) value of each well with Top-count; and calculate the median inhibition concentration (IC50) of drugs in each experimental group on cell proliferation.
# [3] = tested on: Human lung adenocarcinoma cell A549; assay: as above; conditions: A549, 72 h
# Description: as §1
# [4] = tested on: tumor cells; assay: In-vitro inhibition of tumor cell proliferation, hypoxic versus normal oxygen; conditions: in words, see Table 1
# Description: as §1
# [5] = BxPC-3, 72 h, hypoxic (5% CO2, 95% N2)
# [6] = BxPC-3, 72 h, normal oxygen (air)
# [7] = BXPC-3, 72 h, hypoxic (5% CO2, 95% N2), read-out: Median inhibition concentration IC50 hypoxic (nitrogen)
# [8] = BXPC-3, 72 h, normal oxygen (air), read-out: Median inhibition concentration IC50 normal oxygen (air)
# [9] = hypoxic (5% CO2, 95% N2), read-out: Median inhibition concentration IC50 hypoxic (nitrogen)
# [10] = normal oxygen (air), read-out: Median inhibition concentration IC50 normal oxygen (air)
# [11] = BxPC-3, 72 h, hypoxic (5% CO2, 95% N2), read-out: Median inhibition concentration IC50 hypoxic (nitrogen)
# [12] = BxPC-3, 72 h, normal oxygen (air), read-out: Median inhibition concentration IC50 normal oxygen (air)
Compound,"IC50 [1, 7]","IC50 [1, 8]","IC50 [2, 9]","IC50 [2, 10]","IC50 [3, 9]","IC50 [3, 10]",Cytotoxicity under a hypoxic condition compared with that under a normal oxygen condition [4],also measured
COC(=O)[C@H](C)NP(=O)(OC[C@H]1O[C@@H](n2cnc(N)nc2=O)C(F)(F)C1O)OC(C)c1ccc([N+](=O)[O-])cc1 (some centres unmarked) [Compound 014],,,,,,,,"Median inhibition concentration IC50 hypoxic (nitrogen) [1, 5]: 0.7; Median inhibition concentration IC50 normal oxygen (air) [1, 6]: > 10"
C[C@H](NP(=O)(OCc1ccc([N+](=O)[O-])o1)OC[C@H]1O[C@@H](n2ccc(N)nc2=O)C(F)(F)C1O)C(=O)OCc1ccccc1 (some centres unmarked) [Compound 015],0.5 µg/mL,> 10 µg/mL,,,,,,
CC(C)OC(=O)[C@H](C)NP(=O)(OCc1ccc([N+](=O)[O-])s1)OC[C@H]1O[C@@H](n2cnc(N)nc2=O)C(F)(F)C1O (some centres unmarked) [Compound 016],0.4 µg/mL,> 10 µg/mL,,,,,,
CCOC(=O)[C@H](C)NP(=O)(OCc1cnc([N+](=O)[O-])n1C)OC[C@H]1O[C@@H](n2cnc(N)nc2=O)C(F)(F)C1O (some centres unmarked) [Compound 017],0.8 µg/mL,> 10 µg/mL,,,,,,
COc1ccc(COP(=O)(N[C@@H](C)C(=O)OC(C)c2ccc([N+](=O)[O-])o2)OC[C@H]2O[C@@H](n3ccc(N)nc3=O)C(F)(F)C2O)cc1 (some centres unmarked) [Compound 018],0.5 µg/mL,> 10 µg/mL,,,,,,
Cc1ccccc1COP(=O)(N[C@@H](C)C(=O)OC(C)(C)c1ccc([N+](=O)[O-])s1)OC[C@H]1O[C@@H](n2ccc(N)nc2=O)C(F)(F)C1O (some centres unmarked) [Compound 019],0.8 µg/mL,> 10 µg/mL,,,,,,
CC(OC(=O)[C@H](C)NP(=O)(OCc1ccc(N(C)C)cc1)OC[C@H]1O[C@@H](n2ccc(N)nc2=O)C(F)(F)C1O)c1ccc([N+](=O)[O-])cc1 (some centres unmarked) [Compound 020],0.4 µg/mL,> 10 µg/mL,,,,,,
COc1ccccc1COP(=O)(N[C@@H](C)C(=O)OC(C)c1cnc([N+](=O)[O-])n1C)OC[C@H]1O[C@@H](n2ccc(N)nc2=O)C(F)(F)C1O (some centres unmarked) [Compound 021],0.5 µg/mL,> 10 µg/mL,,,,,,
CC(OC(=O)Nc1ccn([C@@H]2O[C@H](COP(=O)(N[C@@H](C)C(=O)OCc3ccccc3)Oc3ccccc3)C(O)C2(F)F)c(=O)n1)c1ccc([N+](=O)[O-])cc1 (some centres unmarked) [Compound 022],,,0.3 µg/mL,0.4 µg/mL,0.01 µg/mL,0.01 µg/mL,not significantly different,"IC50 ([1]; BXPC-3, 72 h, read-out: Median inhibition concentration IC50 hypoxic (nitrogen)): 0.1 µg/mL; IC50 ([1]; BXPC-3, 72 h, read-out: Median inhibition concentration IC50 normal oxygen (air)): 0.1 µg/mL"
C[C@H](NP(=O)(OC[C@H]1O[C@@H](n2ccc(N)nc2=O)C(F)(F)C1O)Oc1ccccc1)C(=O)OCc1ccc([N+](=O)[O-])cc1 (some centres unmarked) [Compound 023],,,0.3 µg/mL,0.4 µg/mL,0.01 µg/mL,0.01 µg/mL,not significantly different,"IC50 [1, 11]: 0.1 µg/mL; IC50 [1, 12]: 0.1 µg/mL"
C[C@H](NP(=O)(OCc1ccccc1Cl)OC[C@H]1O[C@@H](n2ccc(N)nc2=O)C(F)(F)C1O)C(=O)OC(C)(C)c1ccc([N+](=O)[O-])s1 (some centres unmarked) [Compound 024],,,,,,,differed slightly,"Median inhibition concentration IC50 hypoxic (nitrogen) [1, 5]: >10; Median inhibition concentration IC50 normal oxygen (air) [1, 6]: >10"
Nc1ccn([C@@H]2O[C@H](CO)[C@@H](O)C2(F)F)c(=O)n1 [Gemcitabine],,,0.2 µg/mL,0.2 µg/mL,0.01 µg/mL,0.01 µg/mL,no significant difference,"IC50 [1, 11]: 0.2 µg/mL; IC50 [1, 12]: 0.2 µg/mL"
"C[C@H](NP(=O)(OC[C@H]1O[C@@H](n2ccc(N)nc2=O)C(F)(F)[C@@H]1O)Oc1ccccc1)C(=O)OCc1ccccc1 (some centres unmarked) [NUC-1031, reference compound]",,,0.2 µg/mL,0.2 µg/mL,0.01 µg/mL,0.01 µg/mL,no significant difference,"IC50 [1, 11]: 0.1 µg/mL; IC50 [1, 12]: 0.1 µg/mL"
